Patent publication US11525835B2, “Compounds and methods for use in detecting gabapentin” (Ark Diagnostics, Inc., priority 2007, dated 2022)

Test system: Rabbit polyclonal antibody #10930
Test: Specificity of the immunoassay (cross-reactivity of antibody with other antiepileptic drugs)
Type: binding
Settings: assayed in duplicate, Cobas Mira
Source text: Antibodies obtained using any of the disclosed techniques are screened or purified not only for their ability to react with gabapentin, but for a low cross-reactivity with potential interfering substances. “Cross-reactivity” may be determined in a quantitative immunoassay by establishing a standard curve using known dilutions of the target analyte, gabapentin. The standard curve is then used to calculate the apparent concentration of the interfering substance present in various known amounts in samples assayed under similar condition. The cross-reactivity is the apparent concentration divided by the actual concentration multiplied by 100. An exemplary immunoassay for determining cross-reactivity is a homogeneous enzyme immunoassay using a wild type G6PDH as described in U.S. Pat. No. 3,817,837 or mutant G6PDH engineered to contain a cysteine per subunit as described in U.S. Pat. Nos. 6,033,890, 6,090,567 and 6,455,288. Furthermore, the cross-reactivity can be determined in the same type of immunoassay in which the antibody will ultimately be used.
The gabapentin antibodies and enzyme conjugates may be advantageously used in a homogeneous assay format to detect gabapentin in samples. An analyzer (instrument) useful to set up the assay is Roche Cobas Mira (Roche Diagnostics). Gabapentin containing sample is incubated with antibody reagent followed by the addition of the enzyme conjugate reagent. The enzyme conjugate activity decreases upon binding to the antibody. The enzyme conjugate, which is not bound to the antibody, catalyzes the oxidation of glucose 6-phosphate (G6P). The oxidation of G6P is coupled with the reduction of NAD^+ to NADH, which can be measured at 340 nm. The change in the absorbance at 340 nm can be measured spectrophotometrically. The gabapentin concentration in a specimen can be measured in terms of G6PDH activity. The increase in the rate at 340 nm is due to the formation of NADH and is proportional to the enzyme conjugate activity. An assay curve is generated (FIG. 6) using gabapentin spiked into negative calibrator matrix. The assay rate increases with increasing the concentration of free drug in the sample.
The specificity of the immunoassay was evaluated by adding potentially crossreactant drugs to human serum and determining the increase in the apparent concentration as a result of the presence of crossreactant. Separate stock solutions of gabapentin were prepared by dissolving the drug in methanol to give a stock solution of 1000 μg/mL. […] Each sample was assayed in duplicate. Testing was performed on the Cobas Mira Analyzer®. The percentage concentration above 5 μg/mL of gabapentin was calculated for each crossreactant.

[1] = AED at 100 μg/mL in human serum

SMILES	Percent Increase in Apparent Gabapentin [1] [%]	Percent Increase in Apparent Gabapentin (AED at 50 μg/mL in human serum) [%]
NC(=O)N1c2ccccc2C=Cc2ccccc21 [Carbamazepine]	0	–
NS(=O)(=O)Cc1noc2ccccc12 [Zonisamide]	–	0
Nc1nnc(-c2cccc(Cl)c2Cl)c(N)n1 [Lamotrigine]	0	–
CC[C@@H](C(N)=O)N1CCCC1=O [Levetiracetam]	0	–
CCCC(CCC)C(=O)O [Valproic Acid]	0	–
